From patent publication US7947742B2 (Civitas Therapeutics, Inc., priority 2002, dated 2011)
Where two headings read alike, the source gives them in different places. Blank lines part the entries; values can stand above or below the molecule they belong to.

Columns and labels:
[1] = Stability of epinephrine in dry powders with antioxidants, loosely capped vials (Example 10), HPLC; format: physicochemical; conditions: 40° C. and 15% RH, compared to control containing no antioxidants
Source text: Solution preparation. […] The leucine and the antioxidant were present at a combined 82% of the total solids concentration. The two phases were static-mixed immediately prior to being spray dried.
Solutions containing BHT, Vitamin E and Vitamin C were made using a slightly different procedure as follows. […] Additional ethanol pure solvent was static-mixed with the 50/50 ethanol/water solution to form a 70/30 (v/v) ethanol/water solution. The Vitamin E formulation at the 0.3% and 0.9% loadings were prepared as follows. The Vitamin E at these levels was dissolved in the complete organic phase and static-mixed with the aqueous phase which prevented the Vitamin E from precipitating out of solution. Vitamin C was only dissolved in the aqueous phase at 0.9% and the three other powders containing vitamin C at 0.6, 0.9 and 2.0% was prepared with Vitamin C dissolved in the organic phase. Spray drying of all of the powders was performed as described for Formulation IX using the procedure of Example 7.
Stability conditions and analysis. 50 mg of powder was placed into a 7 mL scintillation vial. The vial was loosely capped and placed inside an oven at 40° C. and approximately 15% relative humidity (RH). Samples were analyzed immediately (T0) and after 1, 2, 4 and 8 weeks of such storage. Controls containing no antioxidants (i.e., Formulation IX) were also placed at 45° C. and 50° C. loosely capped.

[2] = Rat pharmacokinetics, plasma epinephrine after intratracheal insufflation or IM injection (Example 12); format: in vivo, Sprague Dawley rats; conditions: rats, injected intramuscularly with epinephrine in solution, up to 20 minutes
Experimental: (§1) Blood samples were taken from the rats via jugular catheters at time points 0, 2.5, 5, 10, and 20 minutes following dosing. Measurements of heart rate were also made at the same time points.
Dose Administration. The powder was delivered to the lungs of rats by an insufflation technique. The insufflator device was from PennCentury (Philadelphia, Pa.). The delivery tube of the insufflator was inserted intratracheally through the mouth until the tip of the tube was about a centimeter from the carina (first bifurcation). […] The volume of […] used to deliver the powder from the sample chamber was 3 mL, which was achieved from a charged syringe. The syringe was recharged and discharged two more times for a total of three discharges per powder dose in order to decrease or eliminate powder residues in the sample chamber.
Study Design. The jugular vein of animals used in pharmacokinetics studies was catheterized with PE90 on the day before the dosing and sampling was performed. A total of six animals were used in this study. For anesthesia (catheter placement and powder dosing), a mixture of ketamine (25 mg), xylazine (3 mg), and acepromazine (0.2 mg) was injected intraperitoneally (IP) into each animal. […] Blood was taken and heart rate was measured using a pulse oximeter attached to the right hind limb of the rats at time 0, 2.5, 5.0, 10.0, and 20.0 minutes. […]

[3] = Phase I human pharmacokinetics of single doses (Example 15); format: in vivo, humans
Experimental: The following example describes a clinical study evaluating inhaled dry powder porous particles containing epinephrine (Formulation VII, as described in Table A). The study was a Phase I, randomized, double blind, placebo-controlled, dose escalation study of the safety, tolerability and pharmacokinetics (PK) of single doses of dry powder epinephrine in healthy male subjects. […] Safety and PK information was obtained for at least 2 hours following dosing.

[4] = tested on: healthy male subjects; assay: Phase I human pharmacodynamics, potassium change from baseline (Example 15); format: in vivo, humans; conditions: dry powder 800 micrograms, EpiPen 300 micrograms, standard IM 300 micrograms
Experimental: Safety and PK information was obtained for at least 2 hours following dosing.

[5] = tested on: Male Sprague Dawley rats; assay: Rat heart rate by pulse oximeter after dosing (Example 12); format: in vivo
Experimental: as §1
Study Design. The jugular vein of animals used in pharmacokinetics studies was catheterized with PE90 on the day before the dosing and sampling was performed. A total of six animals were used in this study. For anesthesia (catheter placement and powder dosing), a mixture of ketamine (25 mg), xylazine (3 mg), and acepromazine (0.2 mg) was injected intraperitoneally (IP) into each animal. The rats were placed on a heating pad after catheter placement to recover. After powder dosing, the rats were placed back in their respective cages. Identification numbers assigned to the rats were written on their tails as well as on the cage cards. Blood was taken and heart rate was measured using a pulse oximeter attached to the right hind limb of the rats at time 0, 2.5, 5.0, 10.0, and 20.0 minutes. The blood samples were collected by syringe from the jugular vein catheter. The blood was carefully ejected into EDTA coated tubes, mixed and then centrifuged for 5 minutes at 14,000 g to separate the plasma from the cells. Plasma was placed into clean microfuge tubes and stored refrigerated until received at the laboratory. […]

Structure (SMILES): O=S([O-])S(=O)(=O)[O-].[Na+].[Na+] [Sodium metabisulfite, sodium metabisulfite]
protection against degradation of epinephrine (in words) [1]: good protection against degradation of epinephrine

Structure (SMILES): O=C(O)CN(CCN(CC(=O)O)CC(=O)O)CC(=O)O [EDTA, ethylenediamine tetra-acetic acid]
protection against degradation of epinephrine (in words) [1]: good protection against degradation of epinephrine

CMAX % CV ([3]; healthy male subjects, standard IM injection, 300 micrograms, n = 7): 66% | Cmax ([3]; male, human, plasma, im, 300 micrograms, healthy male subjects, standard IM injection, 300 micrograms, n = 7, read-out: CMAX Mean (SD)): 0.263 ng/mL | Tmax ([3]; male, human, plasma, im, 300 micrograms, healthy male subjects, standard IM injection, 300 micrograms, n = 7, read-out: TMAX (range)): 1 to 60 min | Cmax ([3]; male, human, plasma, im, 300 micrograms, standard IM injection 300 micrograms, read-out: CMAX values of 2 subjects with higher values): 0.405 ng/mL | Cmax ([3]; male, human, plasma, im, 300 micrograms, standard IM injection 300 micrograms, read-out: CMAX values of the others in the group): ≤ 0.22 ng/mL | CMAX values of 2 subjects with higher values ([3]; standard IM injection 300 micrograms): 595 pg/mL
Structure (SMILES): CNCC(O)c1ccc(O)c(O)c1 (centres unmarked) [Epinephrine, 4-[1-hydroxy-2-(methylamino)ethyl]-1,2-benzenediol]
Plasma epinephrine levels (in words) [2]: very low and not significantly different from room air controls | time of maximal potassium mean change from baseline [4]: continued to decrease through 60 minutes post-dose | heart rate increase in one animal ([5]; one rat intramuscularly injected, observed out to 40 minutes, 25 minutes following dosing): 340 beats/minute | heart rate compared to baseline (in words) ([5]; rats, IM-injected, up to 20 minutes): did not exhibit a significant increase in heart rate

protection against degradation of epinephrine (in words) [1]: not effective antioxidants
Structure (SMILES): O=C1O[C@H]([C@@H](O)CO)C(O)=C1O [Ascorbic acid, ascorbic acid]

protection against degradation of epinephrine (in words) [1]: not effective antioxidants
Structure (SMILES): Cc1cc(C(C)(C)C)c(O)c(C(C)(C)C)c1 [BHT, butylated hydroxytoluene]
